Measurements from US20130251731A1, “Tau Acetylation in the Pathogenesis of Alzheimers Disease and Other Related Tauopathies” (THE TRUSTEES OF THE UNIVERSITY OF PENNSYLVANIA, priority 2012, published 2013).

Assays:
[1] = test system: MT bundling in QBI-293 cells; assay: MT bundling in tau-transfected QBI-293 cells (immunofluorescence); format: cell-based; settings: ten fields/transfection
Method: FIG. 2, comprising FIG. 2A through FIG. 2K, depicts the results of experiments which illustrate that tau acetylation in cells inhibits tau-mediated MT stabilization. FIG. 2A depicts the results of an experiment where Doxycycline (Dox)-treated HEK-T40 cells were cultured in the presence of either trichostatin A (TSA), nicotinamide (NCA) or both and pulse labelled with [^3H]-acetate for 2 h. Tau was immunoprecipitated, treated with λ-phosphatase where indicated, and analyzed by SDS-PAGE followed by autoradiography and exposure to film for 2 weeks. Total cellular lysates were analyzed by immunoblotting using anti-tau (T14/T46), PHF-1 and GAPDH antibodies. FIG. 2B illustrates the results of an experiment where cells transfected with CBP were treated with TSA and acetylated tau levels were determined by immunoprecipitation/immunoblot analysis using anti-acetylated lysine antibody. Cellular lysates were immunoblotted using T14/46, PHF-1, AT8 and GAPDH antibodies. FIG. 2C depicts the results of an experiment where cells were transfected with CBP and either wild-type (WT) HDAC6 or the catalytically dead (CD) HDAC6-H611A mutant and tau acetylation was determined by immunoblotting similar to FIG. 2B above. FIG. 2D depicts the results of an experiment where QBI-293 cells were transfected with WT T40, 2KR (K280/281R), 3KR (K163/280/281R) or 4KR (K163/280/281/369R) mutant T40 and cell lysates were immunoblotted using anti-acetyl-lysine and total tau (T14/T46) antibodies. FIG. 2E through FIG. 2G are images illustrating the results of an experiment where QBI-293 cells were transfected with WT T40 (FIG. 2E) and total MT bundling was determined by immunofluorescence using anti-acetylated tubulin antibodies as shown for WT (FIG. 2F). Merged images indicate stabilized microtubules as shown for WT (FIG. 2G). FIG. 2H through FIG. 2J are images illustrating the results of an experiment where QBI-293 cells were transfected with 4KQ (K163/280/281/369Q) (FIG. 2H) and MT bundling was determined by immunofluorescence using anti-acetylated tubulin antibodies as shown for 4KQ (FIG. 2I) and merged images (FIG. 2J). Representative images are shown from n=4 independent experiments. Note, WT tau (FIG. 2E-FIG. 2G), but not 4KQ (FIG. 2H-FIG. 2J), promotes robust MT bundling. Scale bar, […]. FIG. 2K is a graph illustrating the results of an experiment where QBI-293 cells were transfected with WT T40, K280Q, 4KQ (K163/280/281/369Q) or 4KR mutant plasmids and MT bundling was determined from tau-expressing cells by quantification of ten fields/transfection and values are represented as % MT bundling from tau-expressing cells. Error bars indicate standard error of the mean. *P value=0.006, ***P value=8.46×10^−6 as determined by Student's t-test. […]

[2] = biological target: T1, tau-K18 acetyltransferase activity (Homo sapiens, UniProt P10636); assay: Tau auto-acetylation filter binding assay, cofactor inhibition analysis; format: biochemical; settings: 25 μM tau, 450 μM [3H]-acetyl-CoA; for IC50: 1 hr at 37° C., read-out: IC50 for inhibition of acetyl-CoA-dependent tau-K18 acetyltransferase activity
T1 construct: made in house
T1 sequence (P10636 561-685 limits assumed): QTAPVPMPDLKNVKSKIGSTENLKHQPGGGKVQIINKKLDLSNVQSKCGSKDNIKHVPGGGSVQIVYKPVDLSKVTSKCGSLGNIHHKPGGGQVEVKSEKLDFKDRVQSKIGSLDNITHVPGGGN
Method: Reactions were assembled in 50 μl of reaction buffer containing 50 mM Tris pH 8.0, 100 μM EDTA, and 10% glycerol. Unless specifically noted, reactions contained 25 μM of either WT tau-K18 or tau-K18-2CA mutant. The reactions were initiated by the addition of [^3H]-acetyl-CoA (2.35 Ci mmol^−1, Perkin Elmer) at concentrations ranging from 2.5 μM to 1 mM, incubated at 37° C., and allowed to proceed for 1 hr (unless otherwise noted). Reactions were stopped by the addition of 10 μl of 3 mM CoA, and 25 μl of the reaction was then spotted to a P81 filter paper (Whatman), washed in 10 mM HEPES pH 7.5 three times, and dried using acetone. Incorporated [^3H]-acetyl-CoA was then measured using the Perkin Elmer Tri-Carb 2800TR Liquid Scintillation Analyzer, and the molar amount of acetyl groups incorporated into tau were calculated from a standard curve of the radiolabeled acetyl-CoA.
Reactions were performed in the buffer described above and at 25 μM tau. Reactions included between 1 and 4000 μM of the inhibitors: CoA, acetonyl-CoA, or pantothenic acid. All reactions were initiated by the addition of 450 μM [^3H]-acetyl-CoA (2.35 Ci mmol^−1, Perkin Elmer), incubated for 1 hr at 37° C., and stopped by spotting 25 μl of the reaction to the P81 filter paper. Radiolabeled incorporation was measured as stated above. All data were analyzed using GraphPad Prism to determine kinetic parameters and IC50 values.

[3] = test system: acetylated tau in HEK-T40 cells; assay: Tau acetylation in HEK-T40 cells ([3H]-acetate labelling / immunoprecipitation); format: cell-based, human
Method: FIG. 2, comprising FIG. 2A through FIG. 2K, depicts the results of experiments which illustrate that tau acetylation in cells inhibits tau-mediated MT stabilization. FIG. 2A depicts the results of an experiment where Doxycycline (Dox)-treated HEK-T40 cells were cultured in the presence of either trichostatin A (TSA), nicotinamide (NCA) or both and pulse labelled with [^3H]-acetate for 2 h. Tau was immunoprecipitated, treated with λ-phosphatase where indicated, and analyzed by SDS-PAGE followed by autoradiography and exposure to film for 2 weeks. Total cellular lysates were analyzed by immunoblotting using anti-tau (T14/T46), PHF-1 and GAPDH antibodies. FIG. 2B illustrates the results of an experiment where cells transfected with CBP were treated with TSA and acetylated tau levels were determined by immunoprecipitation/immunoblot analysis using anti-acetylated lysine antibody. […] FIG. 2C depicts the results of an experiment where cells were transfected with CBP and either wild-type (WT) HDAC6 or the catalytically dead (CD) HDAC6-H611A mutant and tau acetylation was determined by immunoblotting similar to FIG. 2B above. […] FIG. 2E through FIG. 2G are images illustrating the results of an experiment where QBI-293 cells were transfected with WT T40 (FIG. 2E) and total MT bundling was determined by immunofluorescence using anti-acetylated tubulin antibodies as shown for WT (FIG. 2F). […]

[4] = test system: histones and microtubules; settings: substrate as listed (H4-21, H3p19, H3, microtubules); cited from earlier work
[5] = test system: auto-acetylated substrate; settings: auto-acetylation, cited from earlier work; for Km: read-out: Km AcCoA [auto]
[6] = Heparin-induced tau fibrillization assay quantified by Thioflavin-T binding; format: biochemical; settings: 10 μM tau proteins, 10 μM heparin, 4-h incubation
Method: (§1) Recombinant full-length T40, 4R-tau MT-binding domain K18, or tau fibrils were acetylated by incubation with [^14C]-labeled acetyl-CoA in the presence or absence of CBP. FIG. 1A illustrates that the reaction products were analyzed by SDS-PAGE and Coomassie blue staining followed by overnight radiographic exposure using STORM phosphor-imager software. FIG. 1B depicts the results of an experiment where T40 or K18 proteins were incubated with acetyl-CoA and/or recombinant CBP and reaction products were subjected to immunoblot analysis using a polyclonal anti-tau-specific antibody for MT repeat domain (E10) and an anti-acetyl-lysine antibody. FIG. 1C is a graph depicting the MT assembly activities of K18 proteins as evaluated in light-scattering assays. Tubulin monomers (30 μM) were mixed with 40 μM tau proteins in MT assembly buffer supplemented with 2 mM guanosine triphosphate. MT assembly was determined by monitoring absorbance every minute at 350 nm using a SpectraMax plate reader. […] FIG. 1D is a graph illustrating the results of experiments where Tau proteins (10 μM) were evaluated in fibrillization reactions using 10 μM heparin to induce assembly. […] Samples were analysed by SDS-PAGE and Coomassie staining to monitor fibril formation. FIG. 1F illustrates the results of experiments where four-hour time points from fibrillization reactions were analysed by negative-staining EM. […]
Tau K18 protein was either mock acetylated or acetylated in vitro using acetyl-CoA substrate as indicated elsewhere herein. […] Protein concentrations were determined using the bicinchoninic acid protein assay (Pierce) with bovine serum albumin as the standard. Acetylated K18 and mock-treated K18 were assessed by a light-scattering assay as described elsewhere herein. […] The extent of fibrillization was assessed at different time points by ThT fluorescence assay, sedimentation analysis and negative staining EM as described elsewhere herein. For ThT fluorescence assay, ThT diluted in 100 mM glycine buffer (pH 8.5) was added and fluorometric readings were taken at 450 nm (excitation) and 510 nm (emission). […]

tubulin = assay: MT assembly light-scattering assay; format: biochemical; settings: 30 μM tubulin, 40 μM tau proteins, 2 mM GTP
Method: as §1

4KQ: tau acetylation mimetic K163/280/281/369Q
% MT bundling from tau-expressing cells [1]: ~7%

4KR: tau non-mimetic mutant K163/280/281/369R
% MT bundling from tau-expressing cells [1]: ~50%

CC(C)(COP(=O)(O)OP(=O)(O)OC[C@H]1O[C@@H](n2cnc3c(N)ncnc32)[C@H](O)[C@@H]1OP(=O)(O)O)[C@@H](O)C(=O)NCCC(=O)NCCS [CoA]
IC50 [2]: 59 µM

CC(=O)CSCCNC(=O)CCNC(=O)[C@H](O)C(C)(C)COP(=O)(O)OP(=O)(O)OC[C@H]1O[C@@H](n2cnc3c(N)ncnc32)[C@H](O)[C@@H]1OP(=O)(O)O [acetonyl-CoA]
IC50 [2]: 668 µM

CC(C)(CO)[C@@H](O)C(=O)NCCC(=O)O [pantothenic acid]
inhibition of tau activity (cofactor competition) ([2]; between 1 and 4000 μM inhibitor): did not show significant inhibition

CC(/C=C/C(=O)NO)=C\[C@@H](C)C(=O)c1ccc(N(C)C)cc1 [trichostatin A]
acetylated tau levels ([3]; HEK-T40 cells pulse labelled with [3H]-acetate for 2 h): dramatic increase in acetylated tau levels | acetylated tau (anti-acetyl-lysine) ([3]; HEK-T40 cells transiently transfected with CBP): dramatic accumulation of acetylated tau

ESA1: MYST-family acetyltransferase, literature kinetics
Kcat [4]: 0.122 s⁻¹ | Km [5]: 9.4 µM

K18-K311D: K18 containing the K311D mutation, negative control
fibrillization (ThT) [6]: did not fibrillize

K280Q: single K280Q acetylation mimetic of T40 tau
% MT bundling from tau-expressing cells [1]: ~40%

Rtt109 + Vps75: acetyltransferase listed for literature kinetics comparison
Kcat [4]: 0.375 s⁻¹ | Kcat [auto] [5]: 0.002 s⁻¹ | Km [5]: 912 µM

WT tau: wild-type longest human tau isoform (T40) expressed in cells
% MT bundling from tau-expressing cells [1]: ~55%

acetylated K18: tau K18 protein acetylated in vitro using acetyl-CoA and CBP
MT assembly (absorbance at 350 nm) (tubulin): failed to promote MT assembly | fibrillization (ThT) [6]: fibrillized rapidly by 3 h

p300: nuclear acetyltransferase, literature kinetics
Kcat [4]: 0.46 s⁻¹ | Km [5]: 3310 µM
